Here are results for four compounds from patent US20080075786A1, “Antimicrobial agents derived from cream” (Universite de Montreal, priority 2006, published 2008).

SMILES strings stand for the structures. Read-outs that look alike come from different tables or passages of the source.

The test system of data set [1] is Candida albicans SC5314 strain. As to the kind of experiment: Germination inhibition assay (antihyphal growth activity). The class given is cell-based. As to conditions: for MIC: commercial free fatty acids, gravimetrical quantification, read-out: MIC, antihyphal growth activity of individual free fatty acids. The method, then:
The Candida albicans SC5314 strain (Fonzi, W. A. and Irwin, M. Y. 1993. Isogenic strain construction and gene mapping in Candida albicans. Genetics 134: 717-728.) was used to investigate the antihyphal activity of whey cream lipids. This strain was routinely grown as yeast cells at 30° C. in YPD medium (1% yeast extract, 2% peptone, 2% dextrose). Germination was induced by incubating cells in dextrose-free Sabouraud (Difco; Joshi, K. R., Gavin, J. B., and Bremner, D. A. 1973. The formation of germ tubes by Candida albicans in various peptone media. Sabouraudia. 11: 259-262.) at 37° C. in 96-wells microtiter plates (Costar 3595). Briefly, cells from fresh YPD cultures were harvested and washed twice with sterile water. Washed cells were suspended in dextrose-free Sabouraud at a density of 5×10^3 cells/ml and then immediately distributed to microtiter wells containing an equal volume of dextrose-free Sabouraud supplemented with different concentrations of lipids. After 15 h incubation at 37° C. in an atmospheric incubator without agitation, cells were washed and fixed with a fresh 1% formaldehyde solution. The ability of lipids to inhibit germination was determined by microscopic observations.

Data set [2] concerns Candida albicans ZK3379 strain (CAI-4 HWP1-lacZ). As to the kind of experiment: C. albicans HWP1-lacZ beta-galactosidase and XTT assays (kinetics of germination inhibition in hyphae inducing media). It counts as cell-based. As to conditions: for germ tube emergence and elongation: all inducing conditions tested (dextrose-free Sabouraud, Lee's, Spider, HFM7), 0-6 h (FIG. 2). The method, then: Candida albicans ZK3379 strain (CAI-4 HWP1-lacZ; Hogan, D A, Vik A, Kolter R (2004). A Pseudomonas aeruginosa quorum-sensing molecule influences Candida albicans morphology. Mol Microbiol 54: 1212-1223.) was used for beta-galactosidase and XTT assays. Cells from this strain were grown in YPDA at 30° C. to a density of about 1×10^8 cells/ml (hemacytometer). These late exponentially growing cells were then washed twice with water and kept on ice until used. Germination was induced by incubating cells (final density of 5×10^5 cells/ ml) at 37° C. in 2.5 ml of either dextrose-free Sabouraud (Joshi et al., 1973), Lee's (Lee K L, Buckley H R, Campbell C C (1975). An amino acid liquid synthetic medium for the development of mycelial and yeast forms of Candida albicans. Sabouraudia 13: 148-153, Spider (Liu H, Kohler J, Fink Gr (1994). Suppression of hyphal formation in Candida albicans by mutation of a STE12 homolog. Science 266: 1723-1726 or Hypha-Forming Media (Biswas S K, Yokoyama K, Kamei K, Nishimur K, Miyaji M (2001) Inhibition of hyphal growth of Candida albicans by activated lansoprazole, a novel benzimidazole proton pump inhibitor Med Mycol 39: 283-285.), supplemented with FFAs. All lipids were dissolved in ethanol. Assays were performed in duplicate in 24-wells mictotiter plates (Costar 3526) without agitation. After appropriate incubation times (i.e. 0, 2, 4 or 6 h), microtiter plates were centrifuged for 5 min at 2000 rpm (Jouan inc. CR3i) and supernatents, discarded. XTT assays were done immediately and essentially as described (Honraet K, Goetghebeur E, Nelis H J (2005). Comparison of three assays for the quantification of Candida biomass in suspension and CDC reactor grown biofilms. J Microbiol Methods 63: 287-295). For beta-galactosidase assays, microtiter plates were frozen at −80° C. and processed later as described (Kippert F (1995). A rapid permeabilization procedure for accurate quantitative determination of beta-galactosidase activity in yeast cells. FEMS Microbiol Lett 128: 201-206; Hogan et al., 2004) but directly in microtiters plates. Absorbances were measured in 96-well microtiters plates using a microtiter plate reader (Microplate Reader MR600), equipped with filters of 410 nm (beta-galactosidase) and 490 nm (XTT), respectively.
As inhibition of germination of C. albicans by molecules could be the result of early and/or late blocking events, a more comprehensive analysis of the activity of free fatty acids was performed using multiple time points and other germ tube inducing media. Therefore, germination was monitored at 0, 2, 4 and 6 h in dextrose-free Sabouraud, Lee's, Spider and HFM7 (i.e. serum) media using the C. albicans HWP1-lacZ assay: beta-galactosidase measurements should reflect the morphological change from yeast cells to hyphal growth (Hogan et al., 2004). beta-galactosidase results were normalized using the XTT assay (Honraet et al., 2005) to correct for biomass increase. Microscopic observations of cells after 6 h incubation are also presented for each inducing conditions and correlated with beta-galactosidase data (FIG. 2).
Background: Tetrazolium dyes change colour on reduction, which living cells bring about.

Data set [3] relates to A. fumigatus. As to the kind of experiment: Antifungal assay against A. fumigatus (optical density at 630 nm). It counts as cell-based. As to conditions: Aspergillus fumigatus; Sabouraud, 30° C., 40 h; commercial FFA. On the procedure:
(§1) Fractionation of Blackcurrant Seed Oil. Journal of the American Oil Chemists Society 65: 755-760). […] Under constant stirring, the mixture was heated to 75° C., or until it became clear, and then cooled slowly to 2° C. After completion of urea crystallization at 2° C. (15 h), the UFFA enriched methanol phase was separated from the urea crystals by centrifugation (5 min) at 1000×g. […] Yields were determined gravimetrically. […] UV detection was used to monitor effluent at 215 nm. Water (10 ml) was added to each of the 45 collected HPLC fractions, and they were then extracted three times with hexane (3×10 ml). […] Antifungal assay using commercial FFA were done in quadruplicates. The antifungal activity was evaluated in 96-well microtiter plates (Costar 3595) using Sabouraud as incubating medium for A. fumigatus and dextrose-free Sabouraud for C. albicans. Spores of A. fumigatus (Jeanine Joly, Université de Montréal) were germinated at 25° C. on slant agar Sabouraud media. They were harvested by washing vigorously slant cultures with 5 ml of 0.9% NaCl. Coarse debris were removed by filtrating the Aspergillus spores suspension through a sterile cotton plugs inserted into a Pasteur pipet. Monodisperse spores suspensions were obtained following brief sonications in a water bath sonicator (Branson 1210). […] Blastospores of the C. albicans SC5314 strain were prepared as for germination inhibition assays (see above). […] Wells were washed three times with Sabouraud before optical reading.

Data set [4] concerns C. albicans SC5314 strain. The data set is described as follows: Antifungal assay against C. albicans (optical density at 630 nm). It counts as cell-based, Candida albicans. As to conditions: dextrose-free Sabouraud, 37° C., commercial FFA. The method, then: as §1
Data set [5] in a line: in vitro. As to conditions: human, Toxicity (TC50) PBMCs. The method, then:
(§2) Cytotoxicity was evaluated using Peripheral Blood Mononuclear cells (PBMC) of volunteers donors (Royal Victoria Hospital, Montreal). These cells were purified by the ficoll-Paque PLUS according to the manufacturer (Amersham-Bioscience). PBMC were used at a density of 100 000 cells/ml in RPMI 1640 (Sigma) supplemented with 10% heat-inactivated fetal bovine serum, 0.3 g/L of L-glutamine, 2 g/L sodium carbonate, 100 U/ml of penicillin and 100 μg/ml of streptomycin (Sigma). Assays were done in 96-well microtiter plates (Costar 3595) and the cytotoxicity was evaluated after 24 hours of incubation at 37° C. in a 5% CO2 atmospheric incubator using the LDH Cytotoxicity detection kit, according to the manufacturer (Roche Diagnostic). […] FFA were diluted in ethanol (96%) and no more than 1% ethanol (final concentration) was used in assays. Ethanol (1%) was used as negative control.
(§3) This method measures the release of lactate dehydrogenase (LDH) from the cytosol of damaged cells into the supernatant (Roche Diagnostic).

The test system of data set [6] is Peripheral Blood Mononuclear cells (PBMC). The data set is described as follows: in vitro. The following applies: human, 24 h. On the procedure:
as §2, §3

Data set [7] has as its system mammalian cells. The data set is described as follows: Toxicity for mammalian cells in vitro. It counts as cell-based. As to conditions: thousand fold less concentrated solution than 10 mM; Bergsson et al., 2001; data not shown.
The test system of data set [8] is C. albicans yeast cells. The following applies: 10 mM; cited from earlier work.
Data set [9] deals with C. albicans reporter strain ZK3379 (HWP1-lacZ). The following applies: for Relative beta-galactosidase expression (filamentous growth): 18 h, 37° C., percentage of control cultures without fatty acids. On the procedure: The effects of fatty acids gamma-linolenic acid and alpha-linolenic acid on filamentous growth of Candida albicans were determined in a filamentation assay. C. albicans reporter strain ZK3379 (HWP1-lacZ; Hogan et al., 2004) was propagated in yeast extract-peptone-dextrose (YPD) for 24 h at 30° C. Prior to the assay, cells were washed twice with phosphate-buffered saline (PBS 1×). Flasks (125 ml) containing 10 ml of prewarmed RPMI 1640/20 mM MOPS (pH 7.0) were inoculated with washed cells at a final concentration of 10^6 cells per ml. Working solutions of fatty acids (25 mM and 6.25 mM) were prepared freshly in ethanol 70%. Fatty acids were diluted in medium at final concentrations of 100 μM and 25 μM. An equal volume (40 μl) of ethanol 70% was added to control cultures. In all cultures, the final concentration of ethanol was 0.4% (v/v). Flasks were incubated at 37° C. for 18 h with shaking (ca. 200 RPM). Cells were collected by filtration (Millipore, 0.45 μm) and washed with PBS 1×. beta-galactosidase was assayed according to the method of Rose and Botstein (1983), where crude protein extracts are prepared and the activity is normalized to the amount of protein assayed. Relative amounts of beta-galactosidase activity were used as a measure of the amount of filamentous growth.

The mark [10] stands for this setting: Candida albicans, SC5314, complete inhibition of germination, 15 h, 37° C.
[11] abbreviates: Candida albicans, SC5314, same MIC in μg/ml (in brackets).
Setting [12] is: complete inhibition of germination, 15 h, 37° C.

A word on the MIC: it is the least concentration at which growth counts as inhibited. What is called IC50 is the midpoint of a concentration-inhibition curve. The CC50 is the concentration at which the toxic effect on the cells reaches its halfway point. Read a high CC50 as lower toxicity to the cells. For `CCCC/C=C\CCCCCCCC(=O)O` [Myristoleic acid (C14:1n-5), myristoleic acid], the MIC worked out at 9 µM in data set [1] (setting [10]), 2.04 µg/mL in data set [1] (setting [11]) and 9 µM in data set [1] (setting [12]). Further, the “appearance of germ tubes” value in data set [2] (Spider and HFM7 media) is given as “partially inhibited the appearance of germ tubes”; in data set [2] (dextrose-free Sabouraud and Lee's inducing media) it was “strongly inhibited the appearance of germ tubes”. In addition, the IC50 in [3] came to 192 µM; in data set [4] (Candida albicans, SC5314, 40 h), 82 µM; in data set [4] (40 h), 81.9 ± 9.2 µM. The same compound returned a CC50 at 24 h in data set [5] of 72 µM. This compound came in with a CC50 in [6] of 71.9 ± 6.2 µM.

As to `CCCCCCCCCC(=O)O` [Capric acid (C10:0), capric acid], the minimal inhibitory concentration (MIC) in data set [1] (setting [10]) came out at 9 µM; in data set [1] (setting [11]), 1.55 µg/mL. Moreover, the “activity at inhibiting C. albicans germination” value in [1] (individual commercial free fatty acids, highest concentration used 81 μM) is recorded as “similarly active to lauric acid”. Moreover, in [2], the “germ tube emergence and elongation” value is on record as “completely inhibited the emergence of germ tubes”. In addition, the IC50 came out at 127 µM in [3] and 182 µM in data set [4] (Candida albicans, SC5314, 40 h). The half-maximal cytotoxic concentration (CC50) at 24 h in data set [5] amounted to 1430 ± 32 µM. For the same compound, in data set [6], the “TC50, PBMC” value was “about 1.4 mM”. For the same compound, in [7], the “toxicity for mammalian cells in vitro” value is recorded as “not toxic”. In addition, the “killing C. albicans yeast cells” value in data set [8] is given as “highly active”.

Regarding `CCCCC/C=C\C/C=C\C/C=C\CCCCC(=O)O` [gamma-linolenic acid (C18:3n-6), gamma-linolenic acid], the IC50 in data set [3] amounted to 13.4 µM; in [4] (Candida albicans, SC5314, 40 h), 2.34 µM. For the same compound, the “Relative beta-galactosidase expression (filamentous growth)” value in data set [9] (25 μM) is given as 5.9 (±6.8) %; in data set [9] (100 μM) it was 0.5 (±0.7) %. Moreover, the “germination of C. albicans” value in [9] (100 μM, RPMI 1640/20 mM MOPS (pH 7.0), HWP1-LacZ strain) is given as “completely inhibited”. Moreover, the “antifungal activity in RPMI 1640/20 mM MOPS media” value in data set [9] (100 μM, data not shown) is on record as “not detected”. This compound registered a CC50 at 24 h in [5] of 41 µM.

On to `CCCCCCCCCCCC(=O)O` [12:0, lauric acid], for which the MIC in [1] (setting [10]) was 9 µM; in data set [1] (setting [11]) it was 1.8 µg/mL; in data set [1] (setting [12]), 9 µM. Besides, the “germ tube emergence and elongation” value in [2] is “completely inhibited the emergence of germ tubes”. The “toxicity for mammalian cells in vitro” value in data set [7] is listed as “not toxic”. For the same compound, the “killing C. albicans yeast cells” value in data set [8] is “highly active”.
